Data taken from PubChem BioAssay AID256 (DTP/NCI, 2004).
Where “and” joins values, the source holds several entries; their conditions need not be identical. Identical values can stand only once. Toxic doses and inconclusive results are not listed. The calls were made as follows: active = survival T/C of 150% or more; inactive = T/C below 125% in these data.

Tested on: CD2F1 mice, L1210 leukemia ip, survival T/C
Assay: NCI In Vivo Anticancer Drug Screen. Data for tumor model L1210 Leukemia (intraperitoneal) in CD2F1 (CDF1) mice
Settings: higher = longer survival
How it was run: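 Activity against a transplanted murine tumor was judged by comparing the compound group with a vehicle group. The outcome in the treated animals was divided by that in the controls.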

[1] = endpoint: mean survival time, dose: 75.0 mg/kg/injection, schedule: Q01DX001 (ip), vehicle: saline
[2] = endpoint: mean survival time, dose: 150.0 mg/kg/injection, schedule: Q01DX001 (ip), vehicle: saline
[3] = endpoint: mean survival time, dose: 100.0 mg/kg/injection, schedule: Q04DX003 (ip), vehicle: saline with Tween-80
[4] = endpoint: mean survival time, dose: 200.0 mg/kg/injection, schedule: Q04DX003 (ip), vehicle: saline with Tween-80
[5] = endpoint: mean survival time, dose: 400.0 mg/kg/injection, schedule: Q04DX003 (ip), vehicle: saline with Tween-80
[6] = endpoint: mean survival time, dose: 100.0 mg/kg/injection, schedule: Q01DX001 (ip), vehicle: saline with Tween-80
[7] = endpoint: mean survival time, dose: 100.0 mg/kg/injection, schedule: Q01DX001 (ip), vehicle: saline
[8] = endpoint: mean survival time, dose: 200.0 mg/kg/injection, schedule: Q01DX001 (ip), vehicle: saline
[9] = endpoint: mean survival time, dose: 400.0 mg/kg/injection, schedule: Q01DX001 (ip), vehicle: saline
[10] = endpoint: mean survival time, dose: 100.0 mg/kg/injection, schedule: Q01DX009 (ip), vehicle: saline with Tween-80
[11] = endpoint: mean survival time, dose: 100.0 mg/kg/injection, schedule: Q01DX009 (ip), vehicle: saline
[12] = endpoint: mean survival time, dose: 200.0 mg/kg/injection, schedule: Q01DX009 (ip), vehicle: saline
[13] = endpoint: mean survival time, dose: 200.0 mg/kg/injection, schedule: Q01DX001 (ip), vehicle: saline with Tween-80
[14] = endpoint: mean survival time, dose: 400.0 mg/kg/injection, schedule: Q01DX001 (ip), vehicle: saline with Tween-80
[15] = endpoint: mean survival time, dose: 200.0 mg/kg/injection, schedule: Q01DX009 (ip), vehicle: saline with Tween-80
[16] = endpoint: mean survival time, dose: 400.0 mg/kg/injection, schedule: Q01DX009 (ip), vehicle: saline with Tween-80
[17] = endpoint: mean survival time, dose: 300.0 mg/kg/injection, schedule: Q01DX001 (ip), vehicle: saline
[18] = endpoint: mean survival time, dose: 400.0 mg/kg/injection, schedule: Q01DX009 (ip), vehicle: saline

Measured: T/C

OCCN(CCO)c1ccc(O)cc1
inactive: endpoint: mean survival time, dose: 5.0 mg/kg/injection, schedule: Q01DX001 (ip), vehicle: saline 92 % of control | endpoint: mean survival time, dose: 10.0 mg/kg/injection, schedule: Q01DX001 (ip), vehicle: saline 92 % of control | endpoint: mean survival time, dose: 20.0 mg/kg/injection, schedule: Q01DX001 (ip), vehicle: saline 92 % of control | endpoint: mean survival time, dose: 40.0 mg/kg/injection, schedule: Q01DX001 (ip), vehicle: saline 92 % of control | [1] 103 % of control | [2] 101 % of control

CC(=O)CC1C(CC(=O)O)C1(C)C (stereo not given)
inactive: endpoint: mean survival time, dose: 100.0 mg/kg/injection, schedule: Q01DX001 (ip), vehicle: alcohol 100 % of control | endpoint: mean survival time, dose: 200.0 mg/kg/injection, schedule: Q01DX001 (ip), vehicle: alcohol 102 % of control | endpoint: mean survival time, dose: 400.0 mg/kg/injection, schedule: Q01DX001 (ip), vehicle: alcohol 102 % of control

O=C(CC(=O)Nc1ccccc1)Nc1ccccc1
inactive: [3] 100 % of control | [4] 100 % of control | [5] 99 % of control

C[P+](c1ccc(F)cc1)(c1ccc(F)cc1)c1ccc(F)cc1
inactive: endpoint: mean survival time, dose: 25.0 mg/kg/injection, schedule: Q04DX002 (ip), vehicle: saline with Tween-80 100 % of control | endpoint: mean survival time, dose: 50.0 mg/kg/injection, schedule: Q04DX002 (ip), vehicle: saline with Tween-80 92 % of control

Cc1sc2ncnc(Cl)c2c1C
inactive: endpoint: mean survival time, dose: 25.0 mg/kg/injection, schedule: Q04DX003 (ip), vehicle: saline with Tween-80 103 % of control | endpoint: mean survival time, dose: 50.0 mg/kg/injection, schedule: Q04DX003 (ip), vehicle: saline with Tween-80 114 % of control | [6] 97 % of control | [3] 94 % of control

CN1C(=O)/C(=C/c2cccs2)SC1=S
inactive: [7] 95 % of control | [8] 98 % of control | [9] 103 % of control

Cc1ccc(-c2oc3ccccc3c(=O)c2O)cc1
inactive: endpoint: mean survival time, dose: 50.0 mg/kg/injection, schedule: Q01DX001 (ip), vehicle: saline 98 % of control | [7] 92 % of control | [8] 98 % of control | [9] 98 % of control

COC(=O)C12OCC34C(CC5C(C)=C(O)C(=O)CC5(C)C3C(O)C1O)OC(=O)C(OC(=O)C=C(C)C)C24 (stereo not given)
inactive: endpoint: mean survival time, dose: 125.0 micrograms/kg/injection, schedule: Q01DX009 (ip), vehicle: saline + alcohol 103 % of control | endpoint: mean survival time, dose: 250.0 micrograms/kg/injection, schedule: Q01DX009 (ip), vehicle: saline + alcohol 100 % of control | endpoint: mean survival time, dose: 500.0 micrograms/kg/injection, schedule: Q01DX009 (ip), vehicle: saline + alcohol 98 % of control | endpoint: mean survival time, dose: 1000.0 micrograms/kg/injection, schedule: Q01DX009 (ip), vehicle: saline + alcohol 104 % of control | endpoint: mean survival time, dose: 2000.0 micrograms/kg/injection, schedule: Q01DX009 (ip), vehicle: saline + alcohol 101 % of control | endpoint: mean survival time, dose: 4000.0 micrograms/kg/injection, schedule: Q01DX009 (ip), vehicle: saline + alcohol 115 % of control

S=c1cc[nH]c(=S)[nH]1
inactive: endpoint: mean survival time, dose: 12.5 mg/kg/injection, schedule: Q01DX009 (ip), vehicle: Klucel (hydroxypropylcellulose) (HPC) 102 % of control | endpoint: mean survival time, dose: 25.0 mg/kg/injection, schedule: Q01DX009 (ip), vehicle: Klucel (hydroxypropylcellulose) (HPC) 98 % of control | endpoint: mean survival time, dose: 50.0 mg/kg/injection, schedule: Q01DX009 (ip), vehicle: Klucel (hydroxypropylcellulose) (HPC) 101 % of control

CC(C)c1ccc(/C=C2/CCCCC2=O)cc1
inactive: endpoint: mean survival time, dose: 25.0 mg/kg/injection, schedule: Q01DX009 (ip), vehicle: saline with Tween-80 93 % of control | endpoint: mean survival time, dose: 50.0 mg/kg/injection, schedule: Q01DX009 (ip), vehicle: saline with Tween-80 97 % of control | [10] 97 % of control

[N-]=[N+]=CC(=O)CCC(NC(=O)OCc1ccccc1)C(=O)OCc1ccccc1 (stereo not given)
inactive: endpoint: median survival time, dose: 200.0 mg/kg/injection, schedule: Q01DX009 (ip), vehicle: Klucel (hydroxypropylcellulose) (HPC) 123 % of control and 96 % of control and 111 % of control | endpoint: median survival time, dose: 400.0 mg/kg/injection, schedule: Q01DX009 (ip), vehicle: Klucel (hydroxypropylcellulose) (HPC) 114 % of control

Cc1ncnc2c1ncn2C1OC(CO)C(O)C1O (stereo not given)
inactive: endpoint: mean survival time, dose: 0.25 mg/kg/injection, schedule: Q01DX005 (ip), vehicle: saline 113 % of control | endpoint: mean survival time, dose: 0.5 mg/kg/injection, schedule: Q01DX005 (ip), vehicle: saline 112 % of control | endpoint: mean survival time, dose: 1.0 mg/kg/injection, schedule: Q01DX005 (ip), vehicle: saline 124 % of control | endpoint: mean survival time, dose: 4.0 mg/kg/injection, schedule: Q01DX005 (ip), vehicle: saline 113 % of control

CNC(=O)Nc1cc(C)ccc1OC
inactive: endpoint: mean survival time, dose: 50.0 mg/kg/injection, schedule: Q01DX009 (ip), vehicle: saline 106 % of control | [11] 101 % of control | [12] 107 % of control

Nc1ncnc2c1ncn2CCCCCO
inactive: [6] 96 % of control | [13] 91 % of control | [14] 91 % of control

CCOC(=O)Cc1cccc(C)n1
inactive: [10] 104 % of control | endpoint: mean survival time, dose: 100.0 mg/kg/injection, schedule: Q04DX003 (ip), vehicle: saline 94 % of control | [15] 98 % of control | endpoint: mean survival time, dose: 200.0 mg/kg/injection, schedule: Q04DX003 (ip), vehicle: saline 92 % of control | [16] 100 % of control | endpoint: mean survival time, dose: 400.0 mg/kg/injection, schedule: Q04DX003 (ip), vehicle: saline 94 % of control

CCC[CH2][Sn]([CH2]CCC)([CH2]CCC)[CH2]CC(=O)OC
inactive: [3] 101 % of control | [4] 95 % of control

Cc1ccc(S(=O)(=O)/N=S(/C)CC/S(C)=N/S(=O)(=O)c2ccc(C)cc2)cc1 (stereo not given)
inactive: endpoint: mean survival time, dose: 100.0 mg/kg/injection, schedule: Q01DX001 (ip), vehicle: Klucel (hydroxypropylcellulose) (HPC) 97 % of control | endpoint: mean survival time, dose: 200.0 mg/kg/injection, schedule: Q01DX001 (ip), vehicle: Klucel (hydroxypropylcellulose) (HPC) 102 % of control | endpoint: mean survival time, dose: 400.0 mg/kg/injection, schedule: Q01DX001 (ip), vehicle: Klucel (hydroxypropylcellulose) (HPC) 100 % of control

CCCCCC#CC1OC12CCCCC2 (stereo not given)
inactive: endpoint: mean survival time, dose: 12.5 mg/kg/injection, schedule: Q01DX009 (sc), vehicle: saline with Tween-80 97 % of control | endpoint: mean survival time, dose: 25.0 mg/kg/injection, schedule: Q01DX009 (sc), vehicle: saline with Tween-80 104 % of control | endpoint: mean survival time, dose: 50.0 mg/kg/injection, schedule: Q01DX009 (sc), vehicle: saline with Tween-80 98 % of control | endpoint: mean survival time, dose: 100.0 mg/kg/injection, schedule: Q01DX009 (sc), vehicle: saline with Tween-80 103 % of control | endpoint: mean survival time, dose: 200.0 mg/kg/injection, schedule: Q01DX009 (sc), vehicle: saline with Tween-80 98 % of control

[O]=[Zr]
inactive: [1] 94 % of control | [2] 97 % of control | [17] 98 % of control

CCOC(=O)c1cnc(SC)nc1NCc1cccc(C)c1
inactive: [6] 98 % of control | [13] 96 % of control | [14] 91 % of control

CC1CC2CCC1C2O (stereo not given)
inactive: [1] 98 % of control | [2] 91 % of control | [17] 87 % of control

COCCN=C(N)C(N)=NCCOC
inactive: [11] 105 % of control | [12] 103 % of control | [18] 102 % of control

O=C(c1ccccc1)C(C(c1ccccc1)N1CCOCC1)N1CCOCC1 (stereo not given)
inactive: [3] 90 % of control | [15] 96 % of control | [4] 92 % of control | [16] 93 % of control | [5] 97 % of control

Nc1nc2nc(CBr)c(CBr)nc2c(=O)[nH]1
inactive: [15] 101 % of control

CCC(N)(CO)CO
inactive: [11] 100 % of control | [12] 94 % of control | [18] 94 % of control

C(=C\c1ccccc1)/C[P+](c1ccccc1)(c1ccccc1)c1ccccc1
inactive: endpoint: mean survival time, dose: 5.0 mg/kg/injection, schedule: Q01DX009 (ip), vehicle: saline with Tween-80 98 % of control | endpoint: mean survival time, dose: 5.0 mg/kg/injection, schedule: Q04DX003 (ip), vehicle: saline with Tween-80 100 % of control | endpoint: mean survival time, dose: 10.0 mg/kg/injection, schedule: Q01DX009 (ip), vehicle: saline with Tween-80 100 % of control | endpoint: mean survival time, dose: 10.0 mg/kg/injection, schedule: Q04DX003 (ip), vehicle: saline with Tween-80 100 % of control | endpoint: mean survival time, dose: 20.0 mg/kg/injection, schedule: Q01DX009 (ip), vehicle: saline with Tween-80 94 % of control | endpoint: mean survival time, dose: 20.0 mg/kg/injection, schedule: Q04DX003 (ip), vehicle: saline with Tween-80 97 % of control

Nc1c(Cl)cc(Cl)cc1C(=O)O
inactive: [7] 102 % of control | [8] 100 % of control | [9] 104 % of control
